Measured values from patent US20180207294A1, “NON-ALCOHOLIC FATTY LIVER REGULATING FACTOR 14-3-3 PROTEIN” (Korea University Research and Business Foundation, priority 2015, published 2018).
One block for each substance: values may come before it.

What was measured:
FAT/CD36 promoter = experiment: Chromatin immunoprecipitation (ChIP) of PPARγ2 on FAT/CD36 promoter, HepG2 cells; format: cell-based; conditions: overexpression of 14-3-3β / 14-3-3γ, FIG. 7C upper side
Experimental: In addition, for chromatin immunoprecipitation (ChIP), HepG2 cells were seeded in a 100 mm plate at a density of 4×10^6 cells per each well, and then transfected with Flag-PPARγ2 DNA (4 μg), mGST-14-3-3β DNA (4 μg) or mGST-14-3-3γ DNA (4 μg), and si-14-3-3β (20 μM, Santa Cruz) or si-14-3-3γ (20 μM, Santa Cruz) using an E-fection plus reagent (Lugen). A ratio of DNA to the E-fection plus reagent was 1:2, and this method was performed according to a manufacturer's manual. The corresponding cells were treated with 0.75% formaldehyde at room temperature for 15 minutes, glycine was added thereto, and the resulting cells were scraped into ice-cold PBS and centrifuged at 1,000×g and 4° C. for 3 minutes to remove a supernatant, pellets were dissolved with 400 μl of FA lysis buffer (50 mM HEPES, 150 mM NaCl, 2 mM EDTA pH8.0, 1% Triton-X100, 0.1% NaDeoxycholate), and then lysed using a sonicator twice for 10 minutes at a high voltage under the following condition: lysis for […] and resting for 30 seconds. […]
In addition, the binding of PPARγ2 and a binding strength thereof according to the expression of 14-3-3β and 14-3-3γ were evaluated by ChIP assay using a PPAR response element (PPRE) known as a binding site of PPARγ2 present in the FAT/CD36 promoter. […]

PPARγ2 S273A mutant = target: T1, PPARγ2 S273A mutant (Homo sapiens, UniProt P37231, S273A); experiment: aP2 promoter luciferase assay with PPARγ2 S273A mutant (HEK-293T); format: cell-based; conditions: FIG. 4C, 4D
T1 construct: expressed in transfected cells; host or cells: HEK-293T
T1 sequence (P37231 1-505 S273A): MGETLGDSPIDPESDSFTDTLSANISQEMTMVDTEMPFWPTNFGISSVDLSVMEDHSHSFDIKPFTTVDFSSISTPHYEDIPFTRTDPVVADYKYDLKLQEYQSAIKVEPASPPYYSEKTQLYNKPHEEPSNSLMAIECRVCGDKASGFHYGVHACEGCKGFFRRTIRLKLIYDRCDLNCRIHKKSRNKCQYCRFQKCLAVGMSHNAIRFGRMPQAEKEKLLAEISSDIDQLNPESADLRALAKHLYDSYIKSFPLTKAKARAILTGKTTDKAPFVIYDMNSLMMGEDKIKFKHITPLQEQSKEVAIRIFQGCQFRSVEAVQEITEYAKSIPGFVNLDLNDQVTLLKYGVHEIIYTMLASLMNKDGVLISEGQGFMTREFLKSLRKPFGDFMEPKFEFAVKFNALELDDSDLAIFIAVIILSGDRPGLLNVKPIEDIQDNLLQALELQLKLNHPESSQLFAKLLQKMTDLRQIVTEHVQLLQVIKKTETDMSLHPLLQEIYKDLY
Experimental: In addition, HEK-293T cells were seeded in a 12-well plate at a density of 1×10^5 cells per each well, and then transfected with an aP2 promoter construct (0.5 μg), Flag-PPARγ2 (S112A) DNA (0.5 μg) or Flag-PPARγ2 (S273A) DNA (0.5 μg), and mGST-14-3-3β DNA (0.5 μg) or mGST-14-3-3γ DNA (0.5 μg) using an E-fection plus reagent (Lugen). A ratio of DNA to the E-fection plus reagent was 1:2, and this method was performed according to a manufacturer's manual. The corresponding cells were washed with ice-cold PBS, and lysed using 80 μl/well of a reporter lysis buffer (Promega, Madison, Wis.), and the lysed cells were centrifuged at 10,000×g and 4° C. for 10 minutes to collect a supernatant, and luciferase activity was measured. As an instrument, Luminometer 20/20n (Turner Biosystems, Sunnyvale, Calif.) was used. For normalization, the cells were cotransfected with pSV40β-galactosidase. For the collected supernatant, β-galactosidase activity was measured and the luciferase activity was revised, and the obtained values were plotted. At this time, a β-galactosidase enzyme analysis system (Promega, Madison, Wis.) was used, and analysis was performed using a DU530 spectrophotometer (Beckman Instruments, Palo Alto, Calif.).

HepG2 cells = experiment: PPARγ2 target gene mRNA (PCR) with 14-3-3 overexpression and oleic acid, HepG2 cells; format: cell-based, human; conditions: 14-3-3 overexpression, 200 μM oleic acid 72 hours, FIG. 7A
Experimental: (§1) HepG2 cells were seeded in a 6-well plate at a density of 4×10^5 cells per each well, and then transfected with GFP-14-3-3β DNA (4 μg) or GFP-14-3-3γ DNA (4 μg) using an E-fection plus reagent (Lugen). A ratio of DNA to the E-fection plus reagent was 1:2, and this method was performed according to a manufacturer's manual. After transfection, the cells were treated with 200 μM of oleic acid (OA) for 72 hours, and for mRNA extraction, the corresponding cells were lysed with 1 ml/well of TRIzol (Invitrogen), 200 μl of chloroform was added thereto and mixed well, the resultant cells were maintained at room temperature for 5 minutes and then centrifuged at 12,000×g and 4° C. for 15 minutes, the obtained supernatant was mixed with 500 μl of isopropanol and then put on ice for 10 minutes, and the resulting supernatant was centrifuged at 12,000×g and 4° C. for 15 minutes to remove a supernatant, and then pellets were dissolved with tertiary distilled water treated with diethyl pyrocarbonate (DEPC). 2 μg of mRNA was synthesized into cDNA using a Superscript First Strand cDNA Synthesis Kit (Bioneer, Daejeon, South Korea) and the synthesized cDNA as a template was amplified through polymerase chain reaction (PCR) using primers specific to PPARγ2 (SEQ ID NOS: 1 and 2), 14-3-3β (SEQ ID NOS: 3 and 4), 14-3-3γ (SEQ ID NOS: 5 and 6), SREBP-1c, FAT/CD36, and β-actin of humans, and was amplified through real-time PCR using primers specific to SREBP-1c, FAT/CD36, and GAPDH of mice. β-actin and GAPDH were used as controls to see whether mRNAs of the respective cells were compared in the same amount.

[1] = tested on: primary mouse hepatocytes; experiment: PPARγ2 target gene mRNA (real-time PCR) with 14-3-3 overexpression and oleic acid, primary mouse hepatocytes; format: cell-based; conditions: 14-3-3 overexpression, oleic acid, FIG. 7B
Experimental: as §1

- change in transcriptional activity of PPARγ2 S273A mutant on 14-3-3 overexpression (PPARγ2 S273A mutant): no change
Substance: 14-3-3β: 14-3-3 isoform protein, overexpressed by DNA transfection; regulating factor that increases transcriptional activity of PPARγ2
- binding of PPARγ2 to the FAT/CD36 promoter (ChIP) (FAT/CD36 promoter): increased
- mRNA expression of FAT/CD36 (HepG2 cells): further increased
- mRNA expression of SREBP-1c (HepG2 cells): further increased
- mRNA expression of FAT/CD36 [1]: further increased
- mRNA expression of SREBP-1c [1]: further increased

- change in transcriptional activity of PPARγ2 S273A mutant on 14-3-3 overexpression (PPARγ2 S273A mutant): no change
Substance: 14-3-3γ: 14-3-3 isoform protein, overexpressed by DNA transfection; regulating factor that decreases transcriptional activity of PPARγ2
- binding of PPARγ2 to the FAT/CD36 promoter (ChIP) (FAT/CD36 promoter): inhibited
- mRNA expression of FAT/CD36 (HepG2 cells): reduced
- mRNA expression of SREBP-1c (HepG2 cells): reduced
- mRNA expression of FAT/CD36 [1]: reduced
- mRNA expression of SREBP-1c [1]: reduced
